Measurements: US20040121489A1, “COX-2 mediated altered prostaglandin balance in diabetes complications” (priority 2002, published 2004)

Legend:
[1] = target: T1, COX-2 (Mus musculus, UniProt Q05769); details: cited from Zhao et al., Mol. Carcinog. 1999; cited from earlier work
T1 construct: cyclooxygenase 2 and interleukin-1 alpha expression in SENCAR mouse epidermis
T1 sequence (Q05769 18-604): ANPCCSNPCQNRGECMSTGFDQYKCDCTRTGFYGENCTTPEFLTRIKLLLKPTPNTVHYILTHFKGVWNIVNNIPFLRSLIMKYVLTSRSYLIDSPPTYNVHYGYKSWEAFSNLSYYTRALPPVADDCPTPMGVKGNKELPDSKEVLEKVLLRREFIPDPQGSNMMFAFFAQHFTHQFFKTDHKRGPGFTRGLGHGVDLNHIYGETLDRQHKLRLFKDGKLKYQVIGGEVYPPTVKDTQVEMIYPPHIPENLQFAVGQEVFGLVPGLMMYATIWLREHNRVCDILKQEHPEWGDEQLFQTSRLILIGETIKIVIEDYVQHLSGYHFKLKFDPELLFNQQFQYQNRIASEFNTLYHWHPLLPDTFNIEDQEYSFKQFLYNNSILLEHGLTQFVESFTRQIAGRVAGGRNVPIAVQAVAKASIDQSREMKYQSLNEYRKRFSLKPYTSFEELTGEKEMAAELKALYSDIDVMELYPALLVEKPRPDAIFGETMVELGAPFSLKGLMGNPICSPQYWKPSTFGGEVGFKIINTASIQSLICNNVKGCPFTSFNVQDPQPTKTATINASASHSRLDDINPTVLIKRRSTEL

[2] = system: urinary PGE2/TXB2 ratio; test: Selective COX-2 and COX-1 blockage in mice, urinary PGE2/TXB2 ratio pre- and post-intervention; type: in vivo, mice (NOD, B6, B6.NODc1t)
Protocol: Urine was directly aliquoted and stored at −70° C. until assay. Enzyme immunoassay was used to particularly detect renal derived metabolites and the systemic derived metabolites. […] The EIA kits utilize a competitive binding assay between unlabeled compound from the specimen sample and a fixed quantity of peroxidase labeled compound for a limited number of binding sites on a compound specific antibody. Assays were performed in 96 well microtitre plates with 50 μL specimen. The unknown sample was bound to appropriate antiserum and conjugate and optical density read at 450 nm using a BIORAD 3550 UV microplate reader. Raw optical density data was converted to percent binding by plotting the percent binding B/Bo as a function of the log compound concentration. Concentration of the prostanoid compound was then directly calculated in pg/well. This concentration was then converted to pg/mL and subsequently to pg/mg urinary creatinine to adjust for urinary concentration, body size and age. The final ratios of PGE2/TXB2 or PGE2+6kPGF1α/TXB2 were then directly calculated.
Selective COX-2 and COX-1 blockage were analyzed in three groups of mice—NOD mice, B6 mice, and a congenic B6.NODc1t strain.
Eight age-matched female 6-8 week old mice of each strain (NOD, B6, and C1t) were divided into two groups.

SMILES	COX-2 inhibition relative to COX-1 inhibition [1]	increase in the urinary PGE2/TXB2 ratio ([2]; 10 mg/kg/d i.p. daily for 14 days, all the three strains of mice (NOD, B6, B6.NODc1t), female 6-8 week old)	difference in urinary PGE2/TXB2 (Dunn's simultaneous multiple comparison test) ([2]; NOD and B6.NODc1t group, COX-2 blocker 10 mg/kg/d i.p. 14 days, pre- vs post-intervention)
COc1cc(C2Oc3cc([C@H]4Oc5cc(O)cc(O)c5C(=O)[C@@H]4O)ccc3OC2CO)ccc1O (stereo partly drawn) [silybinin]	significant COX-2 inhibition		
CS(=O)(=O)Nc1ccc([N+](=O)[O-])cc1OC1CCCCC1 [NS-398]		3-7 fold	significant
